Data from paper PMC4767141, “Discovery of Potent, Orally Bioavailable, Small-Molecule Inhibitors of WNT Signaling from a Cell-Based Pathway Screen” (Journal of Medicinal Chemistry, 2015).

Key:
CYP450 2B8 = CYP450 2B8 (Homo sapiens, UniProt P20813); assay: CYP450 inhibition
PKCDELTA = molecular target: T1, PKCDELTA (Homo sapiens, UniProt Q05655); assay: Millipore kinase panel; type: biochemical; settings: read-out: % Control
T1 construct: purchased Millipore KinaseProfiler (kinases); Cerep (receptors and ion channels)

CK1GAMMA3 = molecular target: T2, CK1GAMMA3 (Homo sapiens, UniProt Q9Y6M4); assay: Millipore kinase panel; type: biochemical; settings: read-out: % Control
T2 construct: purchased Millipore KinaseProfiler (kinases); Cerep (receptors and ion channels)

CAMKIDELTA = molecular target: T3, CAMKIDELTA (Homo sapiens, UniProt Q8IU85); assay: Millipore kinase panel; type: biochemical; settings: read-out: % Control
T3 construct: purchased Millipore KinaseProfiler (kinases); Cerep (receptors and ion channels)

SAPK2A(T106M) = molecular target: T4, SAPK2A(T106M) (Homo sapiens, UniProt Q16539, T106M); assay: Millipore kinase panel; type: biochemical; settings: read-out: % Control
T4 construct: purchased Millipore KinaseProfiler (kinases); Cerep (receptors and ion channels)

PDGFRALPHA(D842V) = molecular target: T5, PDGFRALPHA(D842V) (Homo sapiens, UniProt P16234, D842V); assay: Millipore kinase panel; type: biochemical; settings: read-out: % Control
T5 construct: purchased Millipore KinaseProfiler (kinases); Cerep (receptors and ion channels)

CKIT(D816V) = molecular target: T6, CKIT(D816V) (Homo sapiens, UniProt P10721, D816V); assay: Millipore kinase panel; type: biochemical; settings: read-out: % Control
T6 construct: purchased Millipore KinaseProfiler (kinases); Cerep (receptors and ion channels)

PKBALPHA = molecular target: T7, PKBALPHA (Homo sapiens, UniProt P31749); assay: Millipore kinase panel; type: biochemical; settings: read-out: % Control
T7 construct: purchased Millipore KinaseProfiler (kinases); Cerep (receptors and ion channels)

PI3 KINASE (P110B/P85B) = molecular target: T8, PI3 KINASE (P110B/P85B) (Mus musculus, UniProt Q8BTI9); assay: Millipore kinase panel; type: biochemical; settings: read-out: % Control
T8 construct: purchased Millipore KinaseProfiler (kinases); Cerep (receptors and ion channels)

RET(V804M) = molecular target: T9, RET(V804M) (Homo sapiens, UniProt P07949, V804M); assay: Millipore kinase panel; type: biochemical; settings: read-out: % Control
T9 construct: purchased Millipore KinaseProfiler (kinases); Cerep (receptors and ion channels)

BTK(R28H) = molecular target: T10, BTK(R28H) (Homo sapiens, UniProt Q06187, R28H); assay: Millipore kinase panel; type: biochemical; settings: read-out: % Control
T10 construct: purchased Millipore KinaseProfiler (kinases); Cerep (receptors and ion channels)

V1a (h) = molecular target: T11, V1a (h) (Homo sapiens, UniProt P37288); assay: CEREP binding panel; settings: agonist radioligand, read-out: % Inhibition of Control Specific Binding
T11 construct: purchased Millipore KinaseProfiler (kinases); Cerep (receptors and ion channels)

CHK2(I157T) = molecular target: T12, CHK2(I157T) (Homo sapiens, UniProt O96017, I157T); assay: Millipore kinase panel; type: biochemical; settings: read-out: % Control
T12 construct: purchased Millipore KinaseProfiler (kinases); Cerep (receptors and ion channels)

hERG = hERG (Homo sapiens, UniProt Q12809); assay: hERG inhibition
TIE2(Y897S) = molecular target: T13, TIE2(Y897S) (Homo sapiens, UniProt Q02763, Y897S); assay: Millipore kinase panel; type: biochemical; settings: read-out: % Control
T13 construct: purchased Millipore KinaseProfiler (kinases); Cerep (receptors and ion channels)

PRKAA2 = molecular target: T14, PRKAA2 (Homo sapiens, UniProt P54646); assay: Millipore kinase panel; type: biochemical; settings: read-out: % Control
T14 construct: purchased Millipore KinaseProfiler (kinases); Cerep (receptors and ion channels)

CYP450 2C9 = CYP450 2C9 (Homo sapiens, UniProt P11712); assay: CYP450 inhibition; type: in vitro ADME
CK1GAMMA2 = molecular target: T15, CK1GAMMA2 (Homo sapiens, UniProt P78368); assay: Millipore kinase panel; type: biochemical; settings: read-out: % Control
T15 construct: purchased Millipore KinaseProfiler (kinases); Cerep (receptors and ion channels)

Cl- channel (GABA-gated) = assay: CEREP binding panel; settings: 10 μM, antagonist radioligand
GSK3BETA = molecular target: T16, GSK3BETA (Homo sapiens, UniProt P49841); assay: Millipore kinase panel; type: biochemical; settings: read-out: % Control
T16 construct: purchased Millipore

Clint determination = type: in vitro ADME; settings: human, microsomes, pH 7.4, human microsomes, read-out: Clint (μL/min/mg) Human
Plasma stability = type: in vitro ADME

T14 sequence (P54646 whole entry): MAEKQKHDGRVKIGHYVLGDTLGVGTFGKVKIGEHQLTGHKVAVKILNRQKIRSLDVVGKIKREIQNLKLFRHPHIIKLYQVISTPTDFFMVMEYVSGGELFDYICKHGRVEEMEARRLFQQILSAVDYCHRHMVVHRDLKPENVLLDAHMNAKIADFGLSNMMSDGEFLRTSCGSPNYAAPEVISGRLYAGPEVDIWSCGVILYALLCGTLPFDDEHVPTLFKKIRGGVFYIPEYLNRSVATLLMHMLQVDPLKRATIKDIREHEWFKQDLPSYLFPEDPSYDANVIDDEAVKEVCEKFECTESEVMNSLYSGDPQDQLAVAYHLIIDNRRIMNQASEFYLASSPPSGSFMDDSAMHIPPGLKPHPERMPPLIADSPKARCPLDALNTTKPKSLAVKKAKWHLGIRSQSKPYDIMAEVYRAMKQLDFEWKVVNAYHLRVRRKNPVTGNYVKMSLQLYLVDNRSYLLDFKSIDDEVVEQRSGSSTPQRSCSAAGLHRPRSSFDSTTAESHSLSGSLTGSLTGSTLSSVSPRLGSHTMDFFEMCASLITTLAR
T14 sequence (Q9Y478 whole entry partner): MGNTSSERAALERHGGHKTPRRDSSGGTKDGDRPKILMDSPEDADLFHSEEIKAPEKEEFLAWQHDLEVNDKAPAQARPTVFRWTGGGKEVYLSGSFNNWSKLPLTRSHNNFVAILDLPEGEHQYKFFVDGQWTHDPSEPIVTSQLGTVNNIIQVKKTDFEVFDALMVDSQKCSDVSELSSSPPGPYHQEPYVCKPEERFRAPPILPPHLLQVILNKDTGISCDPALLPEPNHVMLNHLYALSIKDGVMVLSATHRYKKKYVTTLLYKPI
T14 sequence (P54619 whole entry partner): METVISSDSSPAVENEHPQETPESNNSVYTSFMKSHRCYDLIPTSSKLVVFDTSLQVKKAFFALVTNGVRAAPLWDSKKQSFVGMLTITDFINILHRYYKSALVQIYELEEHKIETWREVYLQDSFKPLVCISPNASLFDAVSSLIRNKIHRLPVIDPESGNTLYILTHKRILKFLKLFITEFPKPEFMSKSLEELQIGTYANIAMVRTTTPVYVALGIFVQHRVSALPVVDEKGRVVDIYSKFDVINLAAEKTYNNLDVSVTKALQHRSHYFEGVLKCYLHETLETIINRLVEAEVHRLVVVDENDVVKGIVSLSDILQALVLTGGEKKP
T7 sequence (P31749 whole entry): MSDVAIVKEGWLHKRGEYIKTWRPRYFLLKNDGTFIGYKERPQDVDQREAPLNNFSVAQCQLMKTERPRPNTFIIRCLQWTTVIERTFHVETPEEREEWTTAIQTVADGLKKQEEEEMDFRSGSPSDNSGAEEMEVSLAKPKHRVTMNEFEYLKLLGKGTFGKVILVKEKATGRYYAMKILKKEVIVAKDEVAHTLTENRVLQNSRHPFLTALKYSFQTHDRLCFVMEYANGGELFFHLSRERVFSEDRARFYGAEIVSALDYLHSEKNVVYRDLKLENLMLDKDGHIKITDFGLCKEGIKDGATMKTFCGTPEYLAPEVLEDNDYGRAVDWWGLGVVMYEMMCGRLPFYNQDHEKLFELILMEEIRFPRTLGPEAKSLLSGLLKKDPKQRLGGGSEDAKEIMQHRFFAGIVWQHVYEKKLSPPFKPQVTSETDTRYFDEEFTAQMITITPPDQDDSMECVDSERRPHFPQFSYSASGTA
T4 sequence (Q16539 whole entry T106M): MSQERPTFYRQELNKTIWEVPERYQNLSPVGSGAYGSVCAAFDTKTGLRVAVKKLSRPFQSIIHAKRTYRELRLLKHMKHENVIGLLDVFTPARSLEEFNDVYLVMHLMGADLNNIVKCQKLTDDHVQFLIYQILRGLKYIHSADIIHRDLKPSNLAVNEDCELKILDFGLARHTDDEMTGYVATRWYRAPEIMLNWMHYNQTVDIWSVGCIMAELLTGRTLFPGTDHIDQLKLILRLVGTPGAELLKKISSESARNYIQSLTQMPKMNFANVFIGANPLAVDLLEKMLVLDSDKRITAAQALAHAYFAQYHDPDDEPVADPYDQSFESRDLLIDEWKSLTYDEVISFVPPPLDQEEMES
T3 sequence (Q8IU85 whole entry): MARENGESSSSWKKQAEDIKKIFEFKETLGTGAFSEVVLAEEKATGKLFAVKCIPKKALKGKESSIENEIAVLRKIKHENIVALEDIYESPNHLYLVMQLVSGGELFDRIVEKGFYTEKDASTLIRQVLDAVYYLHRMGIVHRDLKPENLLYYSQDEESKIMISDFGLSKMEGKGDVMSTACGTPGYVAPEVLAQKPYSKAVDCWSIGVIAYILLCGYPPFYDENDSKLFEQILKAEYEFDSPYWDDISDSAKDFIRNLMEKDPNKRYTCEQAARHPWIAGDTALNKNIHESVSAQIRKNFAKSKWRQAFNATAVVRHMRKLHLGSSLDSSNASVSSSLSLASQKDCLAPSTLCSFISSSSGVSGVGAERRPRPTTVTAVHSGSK
T8 sequence (Q8BTI9 whole entry): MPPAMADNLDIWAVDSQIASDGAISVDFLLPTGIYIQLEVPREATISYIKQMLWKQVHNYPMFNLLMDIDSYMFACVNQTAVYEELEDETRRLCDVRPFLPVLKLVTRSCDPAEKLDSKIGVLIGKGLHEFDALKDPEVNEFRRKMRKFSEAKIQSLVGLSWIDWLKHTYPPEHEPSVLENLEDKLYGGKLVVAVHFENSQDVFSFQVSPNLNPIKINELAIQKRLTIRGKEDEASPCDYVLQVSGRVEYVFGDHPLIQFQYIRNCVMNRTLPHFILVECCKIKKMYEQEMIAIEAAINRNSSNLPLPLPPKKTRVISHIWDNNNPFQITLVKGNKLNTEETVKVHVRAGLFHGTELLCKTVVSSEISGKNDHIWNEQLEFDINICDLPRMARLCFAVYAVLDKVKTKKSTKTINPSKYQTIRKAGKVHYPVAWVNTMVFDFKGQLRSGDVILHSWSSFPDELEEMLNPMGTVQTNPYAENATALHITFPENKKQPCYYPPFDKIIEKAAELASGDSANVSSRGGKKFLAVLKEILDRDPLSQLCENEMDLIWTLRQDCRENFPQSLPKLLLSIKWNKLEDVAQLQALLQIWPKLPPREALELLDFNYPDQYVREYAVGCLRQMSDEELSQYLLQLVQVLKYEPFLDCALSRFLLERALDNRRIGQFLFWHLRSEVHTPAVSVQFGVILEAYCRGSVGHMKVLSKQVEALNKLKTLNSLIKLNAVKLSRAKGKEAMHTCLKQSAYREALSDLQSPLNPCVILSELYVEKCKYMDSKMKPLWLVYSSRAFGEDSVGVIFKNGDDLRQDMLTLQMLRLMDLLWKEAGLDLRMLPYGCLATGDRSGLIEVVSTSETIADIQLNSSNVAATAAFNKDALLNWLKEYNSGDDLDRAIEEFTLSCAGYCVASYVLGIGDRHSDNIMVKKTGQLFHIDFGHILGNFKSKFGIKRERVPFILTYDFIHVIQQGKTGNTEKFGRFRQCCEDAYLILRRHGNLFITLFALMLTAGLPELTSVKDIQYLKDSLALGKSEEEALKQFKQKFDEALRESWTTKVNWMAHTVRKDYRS
T8 sequence (O08908 whole entry partner): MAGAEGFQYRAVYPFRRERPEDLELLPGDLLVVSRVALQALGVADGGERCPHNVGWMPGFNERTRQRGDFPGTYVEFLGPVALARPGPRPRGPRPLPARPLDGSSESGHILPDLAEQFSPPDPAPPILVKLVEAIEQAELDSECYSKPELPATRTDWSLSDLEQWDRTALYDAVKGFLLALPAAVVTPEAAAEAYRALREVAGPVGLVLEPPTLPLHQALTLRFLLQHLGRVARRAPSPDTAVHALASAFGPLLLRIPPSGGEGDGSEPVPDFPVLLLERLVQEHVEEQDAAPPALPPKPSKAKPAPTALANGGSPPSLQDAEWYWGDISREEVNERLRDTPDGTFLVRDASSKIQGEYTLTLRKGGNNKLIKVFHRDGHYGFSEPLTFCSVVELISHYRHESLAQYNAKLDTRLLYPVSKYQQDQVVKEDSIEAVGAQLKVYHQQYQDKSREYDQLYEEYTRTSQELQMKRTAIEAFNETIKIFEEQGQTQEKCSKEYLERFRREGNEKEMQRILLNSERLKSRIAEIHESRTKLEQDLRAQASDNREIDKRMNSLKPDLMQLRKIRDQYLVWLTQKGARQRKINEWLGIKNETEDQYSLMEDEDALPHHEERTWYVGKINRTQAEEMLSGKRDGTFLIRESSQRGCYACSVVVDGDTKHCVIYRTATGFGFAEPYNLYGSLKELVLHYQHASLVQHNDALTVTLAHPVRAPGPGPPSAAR
T12 sequence (O96017 whole entry I157T): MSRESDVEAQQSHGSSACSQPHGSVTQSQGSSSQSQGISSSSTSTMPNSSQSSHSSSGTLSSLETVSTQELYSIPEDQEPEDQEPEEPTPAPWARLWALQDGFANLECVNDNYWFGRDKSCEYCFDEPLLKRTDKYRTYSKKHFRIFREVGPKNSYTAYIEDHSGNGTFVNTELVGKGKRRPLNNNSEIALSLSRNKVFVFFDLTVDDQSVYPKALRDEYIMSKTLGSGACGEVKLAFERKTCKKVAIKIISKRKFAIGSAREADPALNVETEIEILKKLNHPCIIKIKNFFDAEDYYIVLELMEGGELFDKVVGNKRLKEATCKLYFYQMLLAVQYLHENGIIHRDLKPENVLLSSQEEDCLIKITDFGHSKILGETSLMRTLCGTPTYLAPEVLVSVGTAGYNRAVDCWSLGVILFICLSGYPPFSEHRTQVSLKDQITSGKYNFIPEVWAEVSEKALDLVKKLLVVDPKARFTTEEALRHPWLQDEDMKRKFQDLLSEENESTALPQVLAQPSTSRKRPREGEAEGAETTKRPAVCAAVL

**Q.** Which results are given for `Cn1cc(-c2ccc(-c3cncc(Cl)c3N3CCC4(CCNC4=O)CC3)cc2)cn1` [Compound 74, 8-(3-Chloro-5-(4-(1-methyl-1H-pyrazol-4-yl)phenyl)pyridin-4-yl)-2,8-diazaspiro[4.5]decan-1-one]?
**A.** IC50 (CYP450 2B8): > 20 µM; remaining activity at 1 µM (PKCDELTA): -37%; remaining activity at 1 µM (CK1GAMMA3): 1%; remaining activity at 1 µM (CAMKIDELTA): -4%; remaining activity at 1 µM (SAPK2A(T106M)): -8%; remaining activity at 1 µM (PDGFRALPHA(D842V)): -4%; remaining activity at 1 µM (CKIT(D816V)): 7%; remaining activity at 1 µM (PKBALPHA): 2%; remaining activity at 1 µM (PI3 KINASE (P110B/P85B)): -1%; remaining activity at 1 µM (RET(V804M)): -8%; remaining activity at 1 µM (BTK(R28H)): -4%; inhibition at 10 µM (V1a (h)): -7%; remaining activity at 1 µM (CHK2(I157T)): 2%; IC50 (hERG): > 10 µM; remaining activity at 1 µM (TIE2(Y897S)): 4%; remaining activity at 1 µM (PRKAA2): 2%; IC50 (CYP450 2C9): 4.2 µM; remaining activity at 1 µM (CK1GAMMA2): 10%

**Q.** Which “% Inhibition of Control Specific Binding” value (Cl- channel (GABA-gated)) does the source give for `O=C1NCCC12CCN(c1c(Cl)cncc1-c1ccc(N3CCOCC3)cc1)CC2` [Compound 44, 8-(3-Chloro-5-(4-morpholin-4-ylphenyl)pyridin-4-yl)-2,8-diazaspiro[4.5]decan-1-one] here?
**A.** 14%

**Q.** What about the remaining activity at 1 µM (GSK3BETA) of the same molecule?
**A.** -25%

**Q.** What about the microsomal CLint at 1 μM (Clint determination) of the same molecule?
**A.** 115 µL/min/mg

**Q.** And the plasma instability (Plasma stability)?
**A.** no plasma instability was observed
